Measured values from patent publication US7138421B2, “Anti-androgenic pyrrolidines with tumor-inhibiting action” (Schring Aktiengesellschaft, priority 2003, dated 2006).
Read-outs that look alike come from different tables or passages of the source.

Key:
androgen receptor = target: T1, androgen receptor (Homo sapiens, UniProt P10275, T878A); type: cell-based
T1 construct: Destabilization of AR in LNCaP Cells by Test Substances; endogenous in cells; host or cells: LNCaP (human prostate cell line)
T1 sequence (P10275 1-920 T878A): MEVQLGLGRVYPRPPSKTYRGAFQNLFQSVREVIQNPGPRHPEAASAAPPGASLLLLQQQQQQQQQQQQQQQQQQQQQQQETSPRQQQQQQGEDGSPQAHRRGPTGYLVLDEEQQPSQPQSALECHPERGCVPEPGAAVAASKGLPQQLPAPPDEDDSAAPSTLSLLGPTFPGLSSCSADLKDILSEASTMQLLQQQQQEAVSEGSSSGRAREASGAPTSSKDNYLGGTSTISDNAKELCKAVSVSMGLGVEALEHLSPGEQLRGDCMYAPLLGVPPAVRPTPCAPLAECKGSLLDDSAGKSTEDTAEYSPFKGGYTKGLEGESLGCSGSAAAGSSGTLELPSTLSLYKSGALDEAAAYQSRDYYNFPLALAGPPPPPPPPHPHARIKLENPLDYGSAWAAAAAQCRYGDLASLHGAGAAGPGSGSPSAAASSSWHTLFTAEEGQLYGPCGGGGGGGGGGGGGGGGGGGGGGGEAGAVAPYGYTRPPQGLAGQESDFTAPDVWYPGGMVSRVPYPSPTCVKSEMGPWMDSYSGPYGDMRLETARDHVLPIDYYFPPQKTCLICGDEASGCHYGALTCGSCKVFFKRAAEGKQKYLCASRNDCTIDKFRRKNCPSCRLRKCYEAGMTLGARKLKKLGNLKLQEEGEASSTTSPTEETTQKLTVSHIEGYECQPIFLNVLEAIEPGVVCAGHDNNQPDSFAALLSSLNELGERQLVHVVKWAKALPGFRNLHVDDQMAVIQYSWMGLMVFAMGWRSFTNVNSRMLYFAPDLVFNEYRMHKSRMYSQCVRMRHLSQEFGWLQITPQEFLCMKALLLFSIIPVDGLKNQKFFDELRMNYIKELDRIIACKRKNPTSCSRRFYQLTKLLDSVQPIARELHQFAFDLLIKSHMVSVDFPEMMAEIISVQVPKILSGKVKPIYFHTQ

LNCaP cells = experiment: Inhibition of the proliferation of LNCaP cells (crystal violet assay); type: cell-based, human; conditions: for IC50: 7 to 8 days; for antiproliferative action (in words): LNCaP cells
Procedure: For the proliferation assay, 6000 LNCaP cells/well (Horoszewicz et al. Cancer Res. 1983, 43, 1809–1817) in a microtiter plate (96-well) in 50 μl of RPMI1640 medium are grown with 5% CCS and cultivated as in Model 1. After 24 hours, the cells receive 50 μl of 2×-concentrated test substance, diluted in culture medium. The solvent concentration is 0.5% DMSO. After 4 days, the cells receive another 100 μl of 1×-concentrated test substance, diluted in culture medium. After 7 to 8 days, the proliferation rate of the cells is determined by means of crystal violet assay (Gillies et al. Anal. Biochem. 1986, 159, 109–113). To determine the antagonism, the substance treatment is performed in the presence of […] of R1881 (1:1000 dilution of ethanolic solution). Control cells receive only 0.5% DMSO. For the agonism, the cells are treated only with test substance (without R1881).

seminal vesicles = experiment: Anti-androgenic action on testosterone-stimulated growth of the seminal vesicles of castrated mice; type: in vivo, mouse; conditions: 7 days, castrated mice with testosterone propionate
Procedure: The function and the size of accessory reproductive glands (prostate and seminal vesicles) depend on androgens. In castrated animals, a growth of these organs is induced by the administration of androgen. Simultaneous treatment with anti-androgens inhibits this growth in a dose-dependent manner. For the examination of test substances, the mice were castrated. On the same day, treatment with testosterone propionate (0.03 mg/mouse) and the test substances (1× daily 10 or 30 mg/kg p.o. in benzyl benzoate-castor oil or ethanol/peanut oil (10:90)) was formulated. The treatment was carried out over 7 days and at the end of the test, the weights of the seminal vesicles and prostate were determined. The inhibition of the seminal vesicle growth, in percent, was calculated in reference to the control groups (with and without testosterone). As a reference substance, cyproterone acetate (30 mg/kg s.c. and p.o.) was used.

[1] = LNCaP cells, 48 h, 1 μM, % of DMSO control
[2] = Homo sapiens, LNCaP, read-out: IC50 inhibition of the proliferation of LNCaP cells, in the presence of 0.1 nmol of R1881
[3] = Homo sapiens, LNCaP, 1 μM test substance, compared to cell growth in the presence of 0.1 nmol of R1881, read-out: % Inhibition at 1 μM
[4] = Homo sapiens, LNCaP, read-out: % Inhibition at 1 μM, 1 μM test substance, compared to cell growth in the presence of 0.1 nmol of R1881
[5] = LNCaP cells, 48 h, 10 μM, % of DMSO control
[6] = Homo sapiens, LNCaP, in the presence of 0.1 nmol of R1881, read-out: IC50 inhibition of the proliferation of LNCaP cells

Row | Structure (SMILES) | AR Content at 1 μM (androgen receptor; [1]) [%] | IC50 (LNCaP cells; [2]) [nM] | inhibition at 1 µM (LNCaP cells; [3]) [%] | also measured
1 | CC(C)(O)[C@@H]1CCCN1CCCCCCCCN1C(=S)N(c2ccc(C#N)c(C(F)(F)F)c2)C(=O)C1(C)C [Example 40, 4-[3-[8-[(2S)-2-(1-Hydroxy-1-methylethyl)pyrrolidin-1-yl]octyl]-4,4-dimethyl-5-oxo-2-thioxoimidazolidin-1-yl]-2-(trifluoromethyl)benzonitrile] | 40 | 11 | 118 | 
2 | CC1(C)C(=O)N(c2ccc(C#N)c(C(F)(F)F)c2)C(=S)N1CCCCO [Example 77 USRe 35956, 4-[3-(4-Hydroxybutyl)-4,4-dimethyl-5-oxo-2-thioxoimidazolidin-1-yl]-2-(trifluoromethyl)benzonitrile, reference compound] |  | > 10000 |  | AR Content at 1 μM (androgen receptor): 230%; AR Content at 10 μM (androgen receptor): 180%; inhibition at 1 µM (LNCaP cells; [4]): 34%; antiproliferative action (in words) (LNCaP cells): little or no antiproliferative action
3 | CC(=O)O[C@]1(C(C)=O)CC[C@H]2[C@@H]3C=C(Cl)C4=CC(=O)[C@@H]5C[C@@H]5[C@]4(C)[C@H]3CC[C@@]21C [CPA, 17-(acetyloxy)-6-chloro-1β,2β-dihydro-3′H -cyclopropa[1,2]pregna-1,4,6-triene-3,20-dione, reference compound] |  |  |  | % Inhibition of MSB Growth (seminal vesicles; 30 mg/kg s.c.): 85%
4 | CC1(C)C(=O)N(c2ccc(C#N)c(C(F)(F)F)c2)C(=S)N1CCO [Example 71 USRe 35956, 4-[3-(2-Hydroxyethyl)-4,4-dimethyl-5-oxo-2-thioxoimidazolidin-1-yl]-2-(trifluoromethyl)benzonitrile, reference compound] | 164 | > 10000 | 9 | AR Content at 10 μM (androgen receptor; [5]): 191%; antiproliferative action (in words) (LNCaP cells): little or no antiproliferative action
5 | CC(O)(CS(=O)(=O)c1ccc(F)cc1)C(=O)Nc1ccc(C#N)c(C(F)(F)F)c1 (stereo not shown) [Bicalutamide, N-[4-Cyano-3-(trifluoromethyl)phenyl]-3-[(4-fluorophenyl)sulfonyl]-2-hydroxy-2-methylpropanamide, reference compound] |  |  | 85 | % Inhibition of MSB Growth (seminal vesicles; 30 mg/kg p.o., 1× daily): 82%; % Inhibition of MSB Growth (seminal vesicles; 30 mg/kg s.c.): 86%
6 | C[C@]1(O)CC[C@H]2[C@@H]3CCC4=CC(=O)CCC4=C3C=C[C@@]21C [Example R1881, 17β-hydroxy-17α-methylestra-4,9,11-trien-3-one, reference compound] |  |  |  | influence on AR content (in words) (androgen receptor; LNCaP cells): stabilizes the AR protein; AR Content (androgen receptor; LNCaP cells, R1881 at 10 nM (printed in the 10 μM column), % of DMSO control): 250%
7 | C[C@@H]1CC[C@H](C)N1CCCCCCCCN1C(=S)N(c2ccc(C#N)c(C(F)(F)F)c2)C(=O)C1(C)C [Example 37, 4-[3-[8-[(2R,5S)-rel-2,5-Dimethylpyrrolidin-1-yl]octyl]-4,4-dimethyl-5-oxo-2-thioxoimidazolidin-1-yl]-2-(trifluoromethyl)benzonitrile] | 57 | 11 | 99 | 
8 | CC1(C)C(=O)N(c2ccc(C#N)c(C(F)(F)F)c2)C(=S)N1CCCCCCCCN1CCC[C@@H]1CO [Example 10, 4-[3-[8-[(2R)-2-(Hydroxymethyl)pyrrolidin-1-yl]octyl]-4,4-dimethyl-5-oxo-2-thioxoimidazolidin-1-yl]-2-(trifluoromethyl)benzonitrile] |  | < 10 |  | % Inhibition of MSB Growth (seminal vesicles; 10 mg/kg p.o., 1× daily): 87%; inhibition at 1 µM (LNCaP cells; [4]): 101%
9 | CC1(C)C(=O)N(c2ccc(C#N)c(C(F)(F)F)c2)C(=S)N1CCCCCCN1CC[C@@H](C(N)=O)C1 [Example 52, (R)-1-[6-[3-[4-Cyano-3-(trifluoromethyl)phenyl]-5,5-dimethyl-4-oxo-2-thioxoimidazolidin-1-yl]hexyl]pyrrolidine-4-carboxamide] | 74 | 12 | 100 | AR Content at 10 μM (androgen receptor; [5]): 36%
10 | CC1(C)C(=O)N(c2ccc(C#N)c(C(F)(F)F)c2)C(=S)N1CCCCCCCCN1CCCC1.Cl [Example 2, 4-[4,4-Dimethyl-5-oxo-3-[8-(pyrrolidin-1-yl)octyl]-2-thioxoimidazolidin-1-yl]-2-(trifluoromethyl)benzonitrile hydrochloride] |  |  |  | AR Content at 10 μM (androgen receptor; [5]): 50%; % Inhibition of MSB Growth (seminal vesicles; 30 mg/kg p.o., 1× daily): 95%; % Inhibition at 1 μM (LNCaP cells; 1 μM test substance, compared to cell growth in the presence of 0.1 nmol of R1881): 100%; IC50 (LNCaP cells; read-out: IC50 inhibition of the proliferation of LNCaP cells, in the presence of 0.1 nmol of R1881, hydrochloride): 41 nM
11 | CC1(C)C[C@@H](CN2CCCC2)N(CCCCCCCN2CCN(c3ccc(C#N)c(C(F)(F)F)c3)C2=S)C1=O [Example 56, 4-[3-[7-[(2S)-4,4-Dimethyl-5-oxo-2-(pyrrolidin-1-ylmethyl)pyrrolidin-1-yl]heptyl]-2-thioxoimidazolidin-1-yl]-2-(trifluoromethyl)benzonitrile] | 24 |  |  | 
12 | CC1(C)C(=O)N(c2ccc(C#N)c(C(F)(F)F)c2)C(=S)N1CCCCCCCN1CCC[C@H]1CO [Example 9, 4-[3-[7-[(2S)-2-(Hydroxymethyl)pyrrolidin-1-yl]heptyl]-4,4-dimethyl-5-oxo-2-thioxoimidazolidin-1-yl]-2-(trifluoromethyl)benzonitrile] | 63 | 26 | 92 | 
13 | CC1(C)C(=O)N(c2ccc(C#N)c(C(F)(F)F)c2)C(=S)N1CCCCCCCCCN1CCC[C@@H]1CO [Example 12, 4-[3-[9-[(2R)-2-(Hydroxymethyl)pyrrolidin-1-yl]nonyl]-4,4-dimethyl-5-oxo-2-thioxoimidazolidin-1-yl]-2-(trifluoromethyl)benzonitrile] |  |  | 93 | IC50 (LNCaP cells; [6]): 24 nM
14 | CC1(C)C(=O)N(c2ccc(C#N)c(C(F)(F)F)c2)C(=S)N1CCCCCCCCN1CC[C@H](O)C1 [Example 32, 4-[3-[8-[(S)-3-Hydroxypyrrolidin-1-yl]octyl]-4,4-dimethyl-5-oxo-2-thioxoimidazolidin-1-yl]-2-(trifluoromethyl)benzonitrile] |  |  | 101 | IC50 (LNCaP cells; [6]): 12 nM
15 | CC1(C)C(=O)N(c2ccc(C#N)c(C(F)(F)F)c2)C(=S)N1CCCCCCCN1CC[C@@H](O)C1 [Example 27, 4-[3-[7-[(R)-3-Hydroxypyrrolidin-1-yl]heptyl]-4,4-dimethyl-5-oxo-2-thioxoimidazolidin-1-yl]-2-(trifluoromethyl)benzonitrile] |  |  | 95 | IC50 (LNCaP cells; [6]): 57 nM
